# Data taken from PMC7827085 (Pharmaceutics, 2021).
# pEC50, pIC50: −log10 of the molar value.
# What was measured:
# ABCB1/MDR1/Pgp = ABCB1/MDR1/Pgp (Homo sapiens, UniProt P08183); assay: in vitro
# OATP2B1 [1] = target: T1, OATP2B1 (Homo sapiens, UniProt O94956); conditions: A431-OATP2B1 cells, pyranine uptake
# T1 sequence (O94956 1-709): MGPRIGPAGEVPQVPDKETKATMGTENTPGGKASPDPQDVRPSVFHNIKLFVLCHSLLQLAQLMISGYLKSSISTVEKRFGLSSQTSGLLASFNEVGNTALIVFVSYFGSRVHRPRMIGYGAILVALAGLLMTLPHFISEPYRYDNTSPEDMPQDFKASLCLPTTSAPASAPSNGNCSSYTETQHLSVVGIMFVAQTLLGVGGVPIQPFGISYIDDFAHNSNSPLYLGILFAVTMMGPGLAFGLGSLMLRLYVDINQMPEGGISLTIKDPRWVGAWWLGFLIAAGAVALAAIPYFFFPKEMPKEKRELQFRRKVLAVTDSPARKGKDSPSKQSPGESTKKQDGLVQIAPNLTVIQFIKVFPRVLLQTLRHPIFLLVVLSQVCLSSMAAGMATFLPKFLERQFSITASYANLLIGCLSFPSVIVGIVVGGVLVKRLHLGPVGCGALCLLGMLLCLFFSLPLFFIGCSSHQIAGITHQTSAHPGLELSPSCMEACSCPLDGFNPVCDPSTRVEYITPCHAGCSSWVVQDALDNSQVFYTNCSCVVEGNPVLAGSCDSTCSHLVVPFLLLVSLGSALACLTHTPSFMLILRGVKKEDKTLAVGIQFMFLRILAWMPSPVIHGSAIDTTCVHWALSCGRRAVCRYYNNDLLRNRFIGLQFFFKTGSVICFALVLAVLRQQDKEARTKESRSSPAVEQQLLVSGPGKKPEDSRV
# ABCB1/Pgp = target: T2, ABCB1/Pgp (Homo sapiens, UniProt P08183); assay: ABCB1-ATPase activity in Sf9 membrane vesicles; format: biochemical
# T2 construct: made in house; host or cells: Sf9 insect cells
# T2 sequence (P08183 whole entry): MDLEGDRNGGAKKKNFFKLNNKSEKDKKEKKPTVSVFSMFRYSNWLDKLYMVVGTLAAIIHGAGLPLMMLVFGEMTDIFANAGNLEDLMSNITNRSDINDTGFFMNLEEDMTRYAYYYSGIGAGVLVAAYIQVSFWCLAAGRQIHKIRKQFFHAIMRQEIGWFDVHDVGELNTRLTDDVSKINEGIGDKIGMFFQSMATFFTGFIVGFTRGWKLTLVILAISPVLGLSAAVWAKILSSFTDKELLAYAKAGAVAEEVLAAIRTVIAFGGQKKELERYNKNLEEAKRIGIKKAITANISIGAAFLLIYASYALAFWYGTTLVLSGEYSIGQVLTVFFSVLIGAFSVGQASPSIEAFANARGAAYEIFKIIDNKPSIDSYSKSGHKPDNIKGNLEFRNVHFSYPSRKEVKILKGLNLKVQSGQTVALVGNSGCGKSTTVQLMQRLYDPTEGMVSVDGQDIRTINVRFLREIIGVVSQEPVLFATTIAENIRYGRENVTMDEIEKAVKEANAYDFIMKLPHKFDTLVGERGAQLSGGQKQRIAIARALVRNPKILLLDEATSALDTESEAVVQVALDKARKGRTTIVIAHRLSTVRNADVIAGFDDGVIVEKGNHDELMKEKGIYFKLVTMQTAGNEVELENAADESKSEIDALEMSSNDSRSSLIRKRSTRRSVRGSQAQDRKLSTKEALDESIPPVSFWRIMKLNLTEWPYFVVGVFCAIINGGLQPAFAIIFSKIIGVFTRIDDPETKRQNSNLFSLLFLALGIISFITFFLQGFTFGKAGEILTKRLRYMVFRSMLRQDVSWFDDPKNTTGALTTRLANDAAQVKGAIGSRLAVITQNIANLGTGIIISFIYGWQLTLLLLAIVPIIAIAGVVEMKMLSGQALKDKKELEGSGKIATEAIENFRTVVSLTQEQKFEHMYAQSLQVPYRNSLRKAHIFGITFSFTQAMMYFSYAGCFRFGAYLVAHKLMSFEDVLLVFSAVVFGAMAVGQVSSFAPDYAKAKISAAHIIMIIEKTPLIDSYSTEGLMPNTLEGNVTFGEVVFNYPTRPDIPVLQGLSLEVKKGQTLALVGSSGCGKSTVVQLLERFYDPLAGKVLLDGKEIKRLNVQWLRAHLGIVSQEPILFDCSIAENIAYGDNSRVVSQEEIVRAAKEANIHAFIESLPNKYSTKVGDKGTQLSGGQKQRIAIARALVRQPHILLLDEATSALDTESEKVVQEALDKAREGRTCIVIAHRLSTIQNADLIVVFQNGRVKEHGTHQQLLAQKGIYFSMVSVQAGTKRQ
# Experimental: ABC transporter ATPase activity was measured in Sf9 membrane vesicles containing the respective human ABC transporters. For ABCG2/BCRP, the cholesterol level in the vesicles was increased to the level of mammalian cell membranes for full activity. For ABCB1/Pgp 20 μg/150 μL and for ABCG2/BCRP 10 μg/150 μL, vesicles were incubated with 3 mM Mg-ATP for 25 min at 37 °C. The test drugs were dissolved in DMSO and 1 µL was added to the samples. The ABC transporter-related ATPase activity was determined and reference activators (50 µM verapamil for ABCB1 and 5 µM quercetin for ABCG2) served as controls.
# Drug-stimulated ATPase activity of the ABCB1 transporter is a well-documented functional assay employed to estimate the substrate or inhibitory features of various drugs. […] In this assay, most transported substrates show a biphasic curve: Low concentrations stimulate, while higher concentrations inhibit, the ATPase activity. In these experiments, we measured the vanadate-sensitive (ABC transporter-related) ABCB1-ATPase activity in membrane vesicles isolated from ABCB1 overexpressing Sf9 cells.
# wild-type ABCG2 = target: T3, wild-type ABCG2 (Homo sapiens, UniProt Q9UNQ0); assay: Hoechst 33342 dye extrusion in HeLa cells expressing wild-type ABCG2; format: cell-based; conditions: wild-type ABCG2, 0.2 µM Hoechst 33342, full inhibition by 1 µM Ko143
# T3 construct: expressed in transfected cells; host or cells: HeLa (Sleeping Beauty transposon system)
# T3 sequence (Q9UNQ0 1-655): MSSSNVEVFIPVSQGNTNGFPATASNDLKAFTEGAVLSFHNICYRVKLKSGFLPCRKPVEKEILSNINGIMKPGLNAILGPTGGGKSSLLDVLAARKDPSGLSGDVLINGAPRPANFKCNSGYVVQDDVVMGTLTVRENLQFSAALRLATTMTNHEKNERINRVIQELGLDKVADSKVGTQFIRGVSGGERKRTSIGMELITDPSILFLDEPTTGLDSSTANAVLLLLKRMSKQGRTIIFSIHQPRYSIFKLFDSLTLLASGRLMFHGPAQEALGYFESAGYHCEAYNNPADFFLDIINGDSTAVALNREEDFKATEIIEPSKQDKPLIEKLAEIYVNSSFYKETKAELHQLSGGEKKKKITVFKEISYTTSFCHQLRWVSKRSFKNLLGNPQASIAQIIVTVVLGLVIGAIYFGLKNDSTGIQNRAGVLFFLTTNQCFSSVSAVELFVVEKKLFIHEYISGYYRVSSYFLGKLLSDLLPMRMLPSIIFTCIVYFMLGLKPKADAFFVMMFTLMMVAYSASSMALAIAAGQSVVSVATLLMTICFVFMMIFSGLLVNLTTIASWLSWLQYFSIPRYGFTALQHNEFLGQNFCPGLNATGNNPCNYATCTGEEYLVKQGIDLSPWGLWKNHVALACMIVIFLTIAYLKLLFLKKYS
# OATP1A2 [2] = target: T4, OATP1A2 (Homo sapiens, UniProt P46721); assay: cell-based
# T4 sequence (P46721 1-670): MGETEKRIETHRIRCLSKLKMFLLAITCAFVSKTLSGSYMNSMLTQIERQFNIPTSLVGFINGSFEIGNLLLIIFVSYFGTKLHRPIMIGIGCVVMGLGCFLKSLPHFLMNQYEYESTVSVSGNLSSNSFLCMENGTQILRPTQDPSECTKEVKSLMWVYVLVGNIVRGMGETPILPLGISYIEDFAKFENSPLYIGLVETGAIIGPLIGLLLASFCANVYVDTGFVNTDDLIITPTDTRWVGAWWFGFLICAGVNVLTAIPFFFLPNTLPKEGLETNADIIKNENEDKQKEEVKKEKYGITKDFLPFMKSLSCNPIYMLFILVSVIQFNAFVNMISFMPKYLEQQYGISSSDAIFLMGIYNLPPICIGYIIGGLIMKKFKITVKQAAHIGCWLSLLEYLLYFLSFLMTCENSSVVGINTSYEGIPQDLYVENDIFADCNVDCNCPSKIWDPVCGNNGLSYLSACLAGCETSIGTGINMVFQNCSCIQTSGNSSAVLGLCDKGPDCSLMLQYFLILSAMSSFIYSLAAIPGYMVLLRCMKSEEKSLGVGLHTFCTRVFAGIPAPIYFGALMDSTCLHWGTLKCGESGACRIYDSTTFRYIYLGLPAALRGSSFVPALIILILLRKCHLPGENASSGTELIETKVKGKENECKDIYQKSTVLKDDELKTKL
# OATP2B1 [3] = target: T1, OATP2B1; assay: cell-based
# OATP1A2 [4] = target: T4, OATP1A2; conditions: based on the IC50 values
# Sequence of ABCB1/MDR1/Pgp (P08183 whole entry): as the sequence (P08183 whole entry) above
Compound,"IC50 at 1 min (ABCB1/MDR1/Pgp; probe 3H-N-methyl-quinidine (NMQ), 1 µM)",Effect on OATP2B1 activity (in words) (OATP2B1 [1]),pEC50 (ABCB1/Pgp),Concentration at which ABCB1-ATPase activity was increased (ABCB1/Pgp; Sf9/ABCB1 membranes),"Effect on ABCB1-ATPase activity (in words) (ABCB1/Pgp; Sf9/ABCB1 membranes, 50 µM verapamil as reference activator)",Effect on Hst dye extrusion by ABCG2 in HeLa cells (in words) (wild-type ABCG2),pIC50 (OATP1A2 [2]),pIC50 (OATP2B1 [3]),"IC50 at 1 min (ABCB1/MDR1/Pgp; Estimated Transporter Inhibition IC50, ABCB1 vesicular assay, ATP-dependent NMQ uptake, HEK-293/ABCB1 inverted membrane vesicles, '-' = no inhibition)","Fold lower affinity for OATP1A2 than lopinavir, ritonavir, remdesivir and ivermectin (OATP1A2 [4])"
NC(=O)c1nc(F)c[nH]c1=O [favipiravir],> 50 µM,no interaction,–,–,–,–,–,–,–,–
CCC(CC)COC(=O)[C@H](C)N[P@](=O)(OC[C@H]1O[C@@](C#N)(c2ccc3c(N)ncnn23)[C@H](O)[C@@H]1O)Oc1ccccc1 [remdesivir],–,–,~5.00,10 to 50 µM,significant ABCB1-ATPase stimulation,slight effect at relatively high concentrations,5.42,5.42,–,–
CCN(CCO)CCCC(C)Nc1ccnc2cc(Cl)ccc12 (stereo not shown) [hydroxychloroquine],–,only modest inhibition,–,–,–,–,4.72,4.08,> 50 µM,3–10 fold
